Reference: patent US20080114007A1 (priority 2006, published 2008)

Target: CSF-1R (Homo sapiens, UniProt P07333)
Test: Peptide (non-phosphorylated) assay, fluorescence polarization competition immunoassay
Format: biochemical
Conditions: 0.7 nM CSF-1R, 308 μM SYEGNSYTFIDPTQ peptide, 1 mM ATP, 80 min; mean of at least three determinations; read-out: c-fms Peptide IC50
In short: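 Read-out is fluorescence polarization: after EDTA quench, anti-phosphotyrosine antibody plus PTK green tracer compete with the phosphorylated peptide for 30 min. The CSF-1R reaction itself ran 80 min at room temperature after ATP addition. DMSO (4%) wells served as controls, positive controls pre-treated with EDTA.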

Sequence of CSF-1R (P07333 20-972): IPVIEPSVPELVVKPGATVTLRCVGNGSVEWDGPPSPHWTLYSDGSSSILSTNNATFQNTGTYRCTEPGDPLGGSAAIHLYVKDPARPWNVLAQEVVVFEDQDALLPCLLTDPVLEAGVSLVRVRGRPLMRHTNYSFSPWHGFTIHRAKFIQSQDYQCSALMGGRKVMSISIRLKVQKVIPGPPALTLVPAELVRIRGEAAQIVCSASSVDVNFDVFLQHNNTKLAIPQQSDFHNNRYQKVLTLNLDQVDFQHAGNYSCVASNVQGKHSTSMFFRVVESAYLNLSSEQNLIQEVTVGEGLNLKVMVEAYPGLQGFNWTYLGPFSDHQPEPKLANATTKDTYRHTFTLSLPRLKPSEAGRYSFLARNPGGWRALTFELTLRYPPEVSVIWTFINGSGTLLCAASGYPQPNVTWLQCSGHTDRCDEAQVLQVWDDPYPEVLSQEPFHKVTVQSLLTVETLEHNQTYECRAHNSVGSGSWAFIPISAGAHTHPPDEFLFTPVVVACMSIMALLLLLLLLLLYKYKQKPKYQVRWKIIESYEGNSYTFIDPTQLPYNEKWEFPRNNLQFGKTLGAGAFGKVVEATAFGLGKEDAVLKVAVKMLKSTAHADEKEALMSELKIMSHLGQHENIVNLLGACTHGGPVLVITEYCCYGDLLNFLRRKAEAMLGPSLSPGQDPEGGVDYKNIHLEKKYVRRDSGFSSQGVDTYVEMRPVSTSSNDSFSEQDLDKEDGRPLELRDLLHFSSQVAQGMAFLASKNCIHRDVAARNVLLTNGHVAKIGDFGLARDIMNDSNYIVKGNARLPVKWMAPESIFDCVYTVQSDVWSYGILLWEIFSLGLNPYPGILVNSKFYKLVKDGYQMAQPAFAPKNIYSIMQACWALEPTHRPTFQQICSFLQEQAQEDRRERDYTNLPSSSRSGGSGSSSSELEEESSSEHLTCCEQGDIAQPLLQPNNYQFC

Row | SMILES | IC50
1 | CCc1ccc(-n2cc(C(=O)NOC)c(=O)c3cnc(Nc4ccc5[nH]ccc5c4)nc32)cc1 [Cpd 285, 8-(4-ethyl-phenyl)-2-(1H-indol-5-ylamino)-5-oxo-5,8-dihydro-pyrido[2,3-d]pyrimidine-6-carboxylic acid methoxy-amide] | 0.8 nM
2 | CONC(=O)c1cn(C2CCCC2)c2nc(Nc3ccc(N4CCCC4)cc3)ncc2c1=O [Cpd 35, 8-cyclopentyl-5-oxo-2-(4-pyrrolidin-1-yl-phenylamino)-5,8-dihydro-pyrido[2,3-d]pyrimidine-6-carboxylic acid methoxy-amide] | 2.2 nM
3 | CONC(=O)c1cn(C2CCCCC2)c2nc(Nc3ccc(C(=O)N4CCCC4)cc3)ncc2c1=O [Cpd 11, 8-cyclohexyl-5-oxo-2-[4-(pyrrolidine-1-carbonyl)-phenylamino]-5,8-dihydro-pyrido[2,3-d]pyrimidine-6-carboxylic acid methoxy-amide] | > 300 nM
4 | CCc1ccc(-n2cc(C(=O)NOC)c(=O)c3cnc(Nc4ccc(CCN5CCCC5)cc4)nc32)cc1 [Cpd 55, 8-(4-ethyl-phenyl)-5-oxo-2-[4-(2-pyrrolidin-1-yl-ethyl)-phenylamino]-5,8-dihydro-pyrido[2,3-d]pyrimidine-6-carboxylic acid methoxy-amide] | 0.51 nM
5 | CC(C)ONC(=O)c1cn(C2CCCCC2)c2nc(Nc3ccc(CCN4CCCC4)cc3)ncc2c1=O [Cpd 16, 8-cyclohexyl-5-oxo-2-[4-(2-pyrrolidin-1-yl-ethyl)-phenylamino]-5,8-dihydro-pyrido[2,3-d]pyrimidine-6-carboxylic acid isopropoxy-amide] | 0.64 nM
6 | CONC(=O)c1cn(-c2ccc3c(c2)CCC3)c2nc(Nc3ccc(CCN4CCCC(F)C4)cc3)ncc2c1=O (stereo not shown) [Cpd 256, 2-{4-[2-(3-fluoro-piperidin-1-yl)-ethyl]-phenylamino}-8-indan-5-yl-5-oxo-5,8-dihydro-pyrido[2,3-d]pyrimidine-6-carboxylic acid methoxy-amide] | 0.88 nM
7 | CCONC(=O)c1cn(C2CCCCC2)c2nc(Nc3ccc(C4CCN(C(C)=O)CC4)cc3)ncc2c1=O [Cpd 29, 2-[4-(1-acetyl-piperidin-4-yl)-phenylamino]-8-cyclohexyl-5-oxo-5,8-dihydro-pyrido[2,3-d]pyrimidine-6-carboxylic acid ethoxy-amide] | 1 nM
8 | CONC(=O)c1cn(C2CCCC2)c2nc(Nc3ccc(CCN4CCN(C)CC4)cc3)ncc2c1=O [Cpd 48, 8-cyclopentyl-2-{4-[2-(4-methyl-piperazin-1-yl)-ethyl]-phenylamino}-5-oxo-5,8-dihydro-pyrido[2,3-d]pyrimidine-6-carboxylic acid methoxy-amide] | 1.5 nM
9 | CONC(=O)c1cn(-c2ccc3c(c2)CCC3)c2nc(Nc3ccc(CN4CCN(C)CC4)cc3)ncc2c1=O [Cpd 128, 8-indan-5-yl-2-[4-(4-methyl-piperazin-1-ylmethyl)-phenylamino]-5-oxo-5,8-dihydro-pyrido[2,3-d]pyrimidine-6-carboxylic acid methoxy-amide] | 1.1 nM
10 | CCONC(=O)c1cn(-c2ccc3c(c2)CCC3)c2nc(Nc3ccc(C4CCN(C(C)=O)CC4)cc3)ncc2c1=O [Cpd 70, 2-[4-(1-acetyl-piperidin-4-yl)-phenylamino]-8-indan-5-yl-5-oxo-5,8-dihydro-pyrido[2,3-d]pyrimidine-6-carboxylic acid ethoxy-amide] | 1.7 nM
11 | CONC(=O)c1cn(-c2ccc3c(c2)CCC3)c2nc(Nc3ccc4cc[nH]c4c3)ncc2c1=O [Cpd 289, 8-indan-5-yl-2-(1H-indol-6-ylamino)-5-oxo-5,8-dihydro-pyrido[2,3-d]pyrimidine-6-carboxylic acid methoxy-amide] | 2 nM
12 | CCc1ccc(-n2cc(C(=O)NOC)c(=O)c3cnc(Nc4ccc(-c5cccc(OC)c5)cc4)nc32)cc1 [Cpd 299, 8-(4-ethyl-phenyl)-2-(3′-methoxy-biphenyl-4-ylamino)-5-oxo-5,8-dihydro-pyrido[2,3-d]pyrimidine-6-carboxylic acid methoxy-amide] | 32 nM
13 | CONC(=O)c1cn(-c2ccc3ccccc3c2)c2nc(Nc3ccc(C4CCN(C)CC4)cc3)ncc2c1=O [Cpd 303, 2-[4-(1-methyl-piperidin-4-yl)-phenylamino]-8-naphthalen-2-yl-5-oxo-5,8-dihydro-pyrido[2,3-d]pyrimidine-6-carboxylic acid methoxy-amide] | 1 nM
14 | O=C(NCCO)c1cn(C2CCCC2)c2nc(Nc3ccc(CCN4CCCC4)cc3)ncc2c1=O [Cpd 43, 8-cyclopentyl-5-oxo-2-[4-(2-pyrrolidin-1-yl-ethyl)-phenylamino]-5,8-dihydro-pyrido[2,3-d]pyrimidine-6-carboxylic acid (2-hydroxy-ethyl)-amide] | 31 nM
15 | CCc1ccc(-n2cc(C(=O)NOC)c(=O)c3cnc(Nc4cccc(N5CCN(C)CC5)c4)nc32)cc1 [Cpd 321, 8-(4-ethyl-phenyl)-2-[3-(4-methyl-piperazin-1-yl)-phenylamino]-5-oxo-5,8-dihydro-pyrido[2,3-d]pyrimidine-6-carboxylic acid methoxy-amide] | 0.5 nM
16 | COCCOc1ccc(Nc2ncc3c(=O)c(C(=O)NOC)cn(-c4ccc5c(c4)CCC5)c3n2)cc1 [Cpd 258, 8-indan-5-yl-2-[4-(2-methoxy-ethoxy)-phenylamino]-5-oxo-5,8-dihydro-pyrido[2,3-d]pyrimidine-6-carboxylic acid methoxy-amide] | 0.94 nM
17 | CN1CCN(CCc2ccc(Nc3ncc4c(=O)c(C(N)=O)cn(-c5ccc(Cl)cc5)c4n3)cc2)CC1 [Cpd 33, 8-(4-chloro-phenyl)-2-{4-[2-(4-methyl-piperazin-1-yl)-ethyl]-phenylamino}-5-oxo-5,8-dihydro-pyrido[2,3-d]pyrimidine-6-carboxylic acid amide] | 20 nM
18 | CONC(=O)c1cn(-c2ccc3c(c2)CCC3)c2nc(Nc3ccc(CCN4CC[C@H](O)C4)cc3)ncc2c1=O [Cpd 255, 2-(4-{2-[(3S)-(3-hydroxy-pyrrolidin-1-yl)]-ethyl}-phenylamino)-8-indan-5-yl-5-oxo-5,8-dihydro-pyrido[2,3-d]pyrimidine-6-carboxylic acid methoxy-amide] | 0.67 nM
19 | CONC(=O)c1cn(-c2ccc3c(c2)CCC3)c2nc(Nc3ccc(C4CCCCN4)cc3)ncc2c1=O (stereo not shown) [Cpd 246, 8-indan-5-yl-5-oxo-2-(4-piperidin-2-yl-phenylamino)-5,8-dihydro-pyrido[2,3-d]pyrimidine-6-carboxylic acid methoxy-amide] | 0.38 nM
20 | CCc1ccc(-n2cc(C(=O)NOC)c(=O)c3cnc(Nc4ccc(CCN5CCC[C@@H](O)C5)cc4)nc32)cc1 [Cpd 240, 8-(4-ethyl-phenyl)-2-(4-{2-[(3R)-(3-hydroxy-piperidin-1-yl)]-ethyl}-phenylamino)-5-oxo-5,8-dihydro-pyrido[2,3-d]pyrimidine-6-carboxylic acid methoxy-amide] | 0.28 nM
21 | CONC(=O)c1cn(-c2ccc3c(c2)CCC3)c2nc(Nc3ccc(C[C@H]4COC(=O)N4)cc3)ncc2c1=O [Cpd 67, (S)-8-indan-5-yl-5-oxo-2-[4-(2-oxo-oxazolidin-4-ylmethyl)-phenylamino]-5,8-dihydro-pyrido[2,3-d]pyrimidine-6-carboxylic acid methoxy-amide] | 1 nM
22 | CONC(=O)c1cn(-c2ccc3c(c2)CCC3)c2nc(Nc3ccc(CCN4CCCC4)cc3)ncc2c1=O [Cpd 130, 8-indan-5-yl-5-oxo-2-[4-(2-pyrrolidin-1-yl-ethyl)-phenylamino]-5,8-dihydro-pyrido[2,3-d]pyrimidine-6-carboxylic acid methoxy-amide] | 1.6 nM
23 | CCc1ccc(-n2cc(C(=O)NOC)c(=O)c3cnc(Nc4ccc(CCN5CC(F)(F)C5)cc4)nc32)cc1 [Cpd 269, 2-{4-[2-(3,3-difluoro-azetidin-1-yl)-ethyl]-phenylamino}-8-(4-ethyl-phenyl)-5-oxo-5,8-dihydro-pyrido[2,3-d]pyrimidine-6-carboxylic acid methoxy-amide] | 1.5 nM
24 | CONC(=O)c1cn(-c2ccc3c(c2)CCC3)c2nc(Nc3cccc(N(C)C)c3)ncc2c1=O [Cpd 326, 2-(3-dimethylamino-phenylamino)-8-indan-5-yl-5-oxo-5,8-dihydro-pyrido[2,3-d]pyrimidine-6-carboxylic acid methoxy-amide] | 1.1 nM
25 | CONC(=O)c1cn(-c2ccc3c(c2)CCC3)c2nc(Nc3cccc(N4CCN(S(=O)(=O)C(F)(F)F)CC4)c3)ncc2c1=O [Cpd 202, 8-indan-5-yl-5-oxo-2-[3-(4-trifluoromethanesulfonyl-piperazin-1-yl)-phenylamino]-5,8-dihydro-pyrido[2,3-d]pyrimidine-6-carboxylic acid methoxy-amide] | 68 nM
26 | CONC(=O)c1cn(-c2ccc3c(c2)CCC3)c2nc(Nc3cccc(C4(O)CCN(CC(F)(F)F)CC4)c3)ncc2c1=O [Cpd 277, 2-{3-[4-hydroxy-1-(2,2,2-trifluoro-ethyl)-piperidin-4-yl]-phenylamino}-8-indan-5-yl-5-oxo-5,8-dihydro-pyrido[2,3-d]pyrimidine-6-carboxylic acid methoxy-amide] | 2.7 nM
27 | CCc1ccc(-n2cc(C(=O)NOC(C)C)c(=O)c3cnc(Nc4ccc(C5CCN(C(C)=O)CC5)cc4)nc32)cc1 [Cpd 59, 2-[4-(1-acetyl-piperidin-4-yl)-phenylamino]-8-(4-ethyl-phenyl)-5-oxo-5,8-dihydro-pyrido[2,3-d]pyrimidine-6-carboxylic acid isopropoxy-amide] | 4.5 nM

Same assay, conditions: c-fms Peptide IC50, 0.7 nM CSF-1R, 308 μM SYEGNSYTFIDPTQ peptide, 1 mM ATP, 80 min; mean of at least three determinations

Row | SMILES | IC50
28 | CONC(=O)c1cn(C2CCC(C)(C)CC2)c2nc(Nc3ccc(C4CCN(C)CC4)cc3)ncc2c1=O [Cpd 209, 8-(4,4-dimethyl-cyclohexyl)-2-[4-(1-methyl-piperidin-4-yl)-phenylamino]-5-oxo-5,8-dihydro-pyrido[2,3-d]pyrimidine-6-carboxylic acid methoxy-amide] | 0.4 nM
